Source: patent US6444656B1, “Antiviral phosphonate nucleotides” (BioChem Pharma, Inc., priority 1992, dated 2002)

What was measured:
Assay type in all cases: cell-based
[1] = tested on: 2.2.15 cell line derived from HepG2 cells; assay: Cytotoxicity (CC50) reported with the anti-HBV assay; conditions: cytotoxicity of Table 2 (HBV assay, 2.2.15 cells)
Procedure: (§1) The 2.2.15 cell line derived from HepG2 cells transfected with episomal HBV DNA (Sells et al (1987) Proc. Natl. Acad. Sci. USA 84:1005-1009 and (1988) J. Virol. 62:2836-2844) was used. The assay was performed basically as described by Ojwang et al. (1995) Antimicrobial Agents and Chemotherapy 39:2570-2573 ). The 2.2.15 cells are seeded (10^5 cells per well) in 300 ul of minimal essential medium supplemented with 10% fetal bovine serum, using 24-well plates pre-coated with 150 ul of 0.1 mg of collagen (rat tail) type I per ml reconstituted in 0.02 M acetic acid. The collagen treatment helped the cells 10 disperse evenly over the culture plate. Once the cells reach confluency (approximately 1 day), the culture medium is replaced every 2 days with medium containing various concentrations of the indicated test compound. In this experiment, the nucleosides 2′,3′-dideoxy-3′-thiacytidine (3TC) or 2′,3′-dideoxycytidine (ddC) are used as positive controls (Ojwang et al. (1995)). Twelve days postadministration of the test compounds, cells are harvested and DNA is prepared as described by Fennewald et al. ( (1995) Antiviral Res. 26:37-54.). At the same time, the culture medium is saved and analyzed for the presence of extracellular viral nucleic acids.

[2] = tested on: HIV-1; assay: Anti-HIV activity: inhibition of HIV-1 replication in infected established cell lines; conditions: laboratory strains of HIV-1, established cell lines, 4 to 6 days post-infection
Procedure: (§2) Laboratory strains of HIV-1, were used to infect established cell lines by using a specific multiplicity of infection (MOI) of the virus for 1 hour at 37° C. prior to washing the cells and re-suspension in medium containing increasing concentrations of drug (or test compound). At 4 to 6 days post-infection, drug-treated and control wells are analyzed for an HIV-1 induced cytopathic effect and/or for the presence of viral reverse transcriptase (RT) or viral p24 antigen in the culture medium (Buckheit and Swanstrom (1991) AIDS Res. Human Retroviruses 7:295-302; Ojwang, et al (1994) J. Acquired Immune Deficiency Syndrome 7:560-570; Ojwang, J. O., et al (1995) Antimicrobial Agents and Chemotherapy. 39:2426-2435 and Rando et al (1995) J. Biol. Chem. 270:1754-1760).

[3] = tested on: HBV; assay: Anti-HBV activity: inhibition of HBV replication in 2.2.15 cells; conditions: twelve days postadministration
Procedure: as §1
The integrated and episomal HBV DNAs are easily separated by using agarose gel electrophoresis which allows for the differential quantification of the two species of HBV DNA. […] As a molecular probe, a subgenomic fragment of the HBV DNA is cloned into the pCRII TA cloning vector (Invitrogen) plasmid between the two EcoR1 sites. The subgenomic HBV DNA fragment is obtained by using the PCR technique to amplify a portion of the HBV genome (nucleotide positions 2134 to 143). Total DNA isolated from 2.2.15 cells is used as the PCR template with primer sets corresponding to nucleotide positions 2134 to 2151 (forward) and 143 to 126 (reverse). […] In addition, the filters are also exposed to a photoimaging plate and quantitated, using a Fujix Bioimaging Analyzer System BAS 1000 (or similar) instrument.

[4] = tested on: established cell lines; assay: Cytotoxicity (CCTD50) reported with the anti-HIV-1 assay; conditions: cytotoxicity Table 1 (HIV-1 assay)
Procedure: as §2

[5] = Cytotoxicity (CC50) reported with the anti-HBV assay; conditions: human; cytotoxicity of Table 2 (HBV assay, 2.2.15 cells)
Procedure: as §1

| Compound | CC50 [1] [µg/mL] | EC50 (μg/ml), inhibition of HIV-1 replication [2] [µg/mL] | EC50 (μg/ml), inhibition of HBV replication [3] [µg/mL] | CCTD50 [4] [µg/mL] | CC50 [5] [µg/mL] | EC50 ([2]; Human immunodeficiency virus 1, read-out: EC50 (μg/ml), inhibition of HIV-1 replication) [µg/mL] | EC50 ([3]; Hepatitis B virus, read-out: EC50 (μg/ml), inhibition of HBV replication) [µg/mL] |
| --- | --- | --- | --- | --- | --- | --- | --- |
| Ammonium; 5-(2-Amino-6-oxo-1,6-dihydro-purin-9-ylmethyl)-3,4-dihydroxy-tetrahydro-furan-2-phosphonate [Example 10] | >300 | 5 | 0.295 | >10 |  |  |  |
| Nc1nc2c(nc(Cl)n2CC2CCC(P(=O)(Oc3ccccc3)Oc3ccccc3)O2)c(=O)[nH]1 (stereo not drawn) [Example 16, [5-(2-Amino-8-chloro-6-oxo-1,6-dihydro-purin-9-ylmethyl)-tetrahydro-furan-2-yl]-phosphonic Acid Diphenyl Ester] | >300 | 0.46 | 11 | >10 |  |  |  |
| Nc1nc(O)c2ncn(C[C@H]3O[C@@H](P(=O)(O)O)C[C@@H]3F)c2n1 [Compound 23] |  |  |  | >10 | > 300 | > 10 | > 30 |
